Here are results for two molecules from patent US5770617A, “Terbenzimidazoles useful as antifungal agents” (Rutgers, The State University of New Jersey, priority 1997, dated 1998).

One may read the IC50 as the point on the concentration scale where inhibition reaches its midpoint.

Data set [1] deals with T1, calf thymus topoisomerase I (Bos taurus, UniProt F1MN93).
T1 construct: DNA topoisomerase I was purified from calf thymus gland as reported previously; from tissue; host or cells: calf thymus gland
T1 sequence (F1MN93 1-767): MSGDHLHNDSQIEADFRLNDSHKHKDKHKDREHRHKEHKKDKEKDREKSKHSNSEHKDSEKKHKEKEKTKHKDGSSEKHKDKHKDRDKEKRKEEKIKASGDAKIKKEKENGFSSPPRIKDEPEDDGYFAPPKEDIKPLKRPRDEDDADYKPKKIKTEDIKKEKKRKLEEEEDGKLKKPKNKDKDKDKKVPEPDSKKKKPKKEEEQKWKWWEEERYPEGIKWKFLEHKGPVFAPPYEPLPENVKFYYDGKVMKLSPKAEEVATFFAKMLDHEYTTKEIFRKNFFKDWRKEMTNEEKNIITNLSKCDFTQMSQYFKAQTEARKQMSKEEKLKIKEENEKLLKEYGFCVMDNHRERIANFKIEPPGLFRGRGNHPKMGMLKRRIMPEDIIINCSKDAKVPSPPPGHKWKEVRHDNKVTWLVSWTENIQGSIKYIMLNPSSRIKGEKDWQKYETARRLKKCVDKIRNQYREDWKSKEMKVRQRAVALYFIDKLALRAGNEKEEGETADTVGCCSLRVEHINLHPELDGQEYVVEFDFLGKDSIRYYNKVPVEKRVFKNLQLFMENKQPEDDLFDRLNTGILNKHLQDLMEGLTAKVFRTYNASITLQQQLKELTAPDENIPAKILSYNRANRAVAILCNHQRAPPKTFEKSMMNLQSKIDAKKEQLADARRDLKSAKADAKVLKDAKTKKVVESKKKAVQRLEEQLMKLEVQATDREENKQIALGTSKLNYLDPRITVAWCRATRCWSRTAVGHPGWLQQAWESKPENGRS
Briefly: Topoisomerase I-mediated DNA cleavage assay (calf thymus enzyme). Conditions: for Topo I-mediated DNA cleavage (REC, Relative Effective Concentration): concentration relative to Hoechst 33342 (arbitrarily 1) producing the same cleavage on plasmid DNA, calf thymus topoisomerase I. The data set is classed as biochemical. The source says:
A. Topoisomerase I-Mediated DNA Cleavage Assays
DNA topoisomerase I was purified from calf thymus gland as reported previously by B. D. Halligan et al., J. Biol. Chem., 260, 2475 (1985).
Plasmid YEpG was also purified by the alkali lysis method followed by phenol deproteination and CsCl/ethidium isopycnic centrifugation as described by T. Maniatis et al., Molecular Cloning, A Laboratory Manual, Cold Spring Harbor Labs, N.Y. (1982) at pages 149-185. The end-labeling of the plasmid was accomplished as previously described by L. F. Liu et al., J. Biol. Chem., 258, 15365 (1983). The cleavage assays were performed as previously reported by A. Y. Chen et al., Cancer Res., 53, 1332 (1993). Human topoisomerase I was isolated as a recombinant fusion protein using a T7 expression system.

Data set [2] relates to human lymphoblast RPMI 8402. As to the kind of experiment: MTT cytotoxicity assay, RPMI 8402. Format: cell-based. How it is done: The cytotoxicity was determined using the as MTT-microtiter plate tetrazolinium cytotoxicity assay (MTA) following the procedures of F. Denizot et al., J. Immunol. Methods, 89, 271 (1986); J. Carmichael et al., Cancer Res, 47, 936 (1987) and T. J. Mosmann et al., Immunol. Methods, 65, 55 (1983). The human lymphoblast RPMI 8402 and its camptothecin-resistant variant cell line, CPT-K5 were provided by Dr. Toshiwo Andoh (Aichi Cancer Center Research Institute, Nagoya, Japan). See, for example, T. Andoh et al., Adv. Pharmacol., 29B, 93 (1994). The cytotoxicity assay was performed using 96-well microtiter plates. Cells were grown in suspension at 37 ° C. in 5% CO2 and maintained by regular passage in RPMI medium supplemented with 10% heat inactivated fetal bovine serum, L-glutamine (2 mM), penicillin (100 U/ml), and streptomycin (0.1 mg/ml). For determination of IC50, cells were exposed continuously with varying concentrations of drug concentrations and MTT assays were performed at the end of the fourth day.
(In general: Formazan colour is commonly taken as a measure of viable cells.)

`CCCc1ccc2[nH]c(-c3ccc4[nH]c(-c5ccc6[nH]cnc6c5)nc4c3)nc2c1` [Compound 12, 5-Propyl-2-[2'-(benzimidazol-5"-yl)benzimidazol-5'-yl]benzimidazole]: in data set [1], the “potency as topoisomerase I inhibitor compared with Hoechst 33342, in words” value is reported as “much less active” and the “Topo I-mediated DNA cleavage (REC, Relative Effective Concentration)” value was 100. Further, in data set [2], the “cytotoxicity towards RPMI 8402, in words” value is reported as “weak cytotoxicity”.

In the case of `Brc1ccc2[nH]c(-c3ccc4[nH]c(-c5ccc6[nH]cnc6c5)nc4c3)nc2c1` [JSKIV-37, 5-Bromo-2-[2'-(benzimidazol-5"-yl)benzimidazol-5'-yl]-benzimidazole], in data set [1], the “Topo I-mediated DNA cleavage (REC, Relative Effective Concentration)” value is listed as 1. The IC50 in data set [2] (Homo sapiens, RPMI 8402, 96 h, read-out: Cytotoxicity IC50 RPMI) was found to be 1400 nM.
